Experimental findings from ChEMBL document CHEMBL4052622, “Geldanamycin-inspired compounds induce direct trans-differentiation of human mesenchymal stem cells to neurons” (Eur J Med Chem, 2017) are described below.

Activity calls are given as the source filed them. The rule behind the calls is not given here.

Assay type in all cases: functional, cell-based
The subject of assay [1] is MSC. Kind of assay: Induction of differentiation of human umbilical cord tissue-derived MSC to neurons assessed as upregulation of RTN4 levels at 10 uM after 11 days by End PCR analysis.
Assay [2] relates to MSC. Kind of assay: Induction of differentiation of human umbilical cord tissue-derived MSC to neurons assessed as upregulation of agrin levels at 10 uM after 11 days by End PCR analysis.
Assay [3] concerns MSC. Kind of assay: Induction of differentiation of human umbilical cord tissue-derived MSC to neurons assessed as upregulation of nestin levels at 10 uM after 11 days by End PCR analysis.
Assay [4] has as its system MSC. Kind of assay: Induction of differentiation of human umbilical cord tissue-derived MSC to neurons assessed as phenotypic changes in cell at 10 uM after 11 days by End PCR analysis.

Turning to `CO[C@H]1[C@@H](OC)C[C@H](C)Cn2cc(nn2)COC(=O)/C(C)=C/C=C\[C@H](OC)[C@H](CO[Si](C)(C)C(C)(C)C)OC(=O)[C@@H]1C`, the outcome in the assay on MSC [1], in the assay with MSC [2] and with MSC [3] was Active.

Regarding `CO[C@H]1[C@@H](OC)C[C@H](C)Cn2cc(nn2)COC(=O)/C(C)=C/CC[C@H](OC)[C@H](CO)OC(=O)[C@@H]1C`, the result with MSC [1], in the assay on MSC [4], in the assay on MSC [2] and in the assay with MSC [3] was Active.

Take `CO[C@H]1[C@@H](OC)C[C@H](C)Cn2cc(nn2)COC(=O)/C(C)=C/CC[C@H](OC)[C@H](CO[Si](C)(C)C(C)(C)C)OC(=O)[C@@H]1C`: the result in the assay on MSC [1], in the assay on MSC [2] and in the assay on MSC [3] was Active.

In the case of `CO[C@@H](C[C@H](C)CO)[C@H](O)[C@@H](C)C(=O)N1C(=O)OC[C@H]1Cc1ccccc1`, the result with MSC [1], in the assay on MSC [4], with MSC [2] and in the assay on MSC [3] was Active.

Regarding `CO[C@@H]([C@H](C[C@H](C)CN=[N+]=[N-])OC)[C@@H](C)C(=O)N1C(=O)OC[C@H]1Cc1ccccc1`, the result in the assay on MSC [1] and in the assay with MSC [2] was Active. Moreover, the result with MSC [3] was inactive.
